Data as given in patent US7977064B2, “Disheveled PDZ modulators” (Genentech, Inc., priority 2006, dated 2011).
Entries after “also recorded” stand apart in the source; their conditions may differ. One block for each substance: values may come before it. No end group written: not given here.

Assays:
Dvl2PDZ [1] = molecular target: T1, Dvl2PDZ (Homo sapiens, UniProt O14641); test: Competition ELISA, peptides binding to Dvl2PDZ
T1 construct: protein fragments spanning amino acids 248-364 of the full-length Dvl2 were produced; made in house; host or cells: E. coli (pGEX system)
T1 sequence (O14641 248-364): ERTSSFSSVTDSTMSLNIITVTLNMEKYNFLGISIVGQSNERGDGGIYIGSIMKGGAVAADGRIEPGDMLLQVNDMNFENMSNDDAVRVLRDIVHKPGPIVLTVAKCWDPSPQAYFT
Description: Many methods are known and can be used to identify the binding affinities of binding molecules (e.g. peptides, proteins, small molecules, etc.); for example, binding affinities can be determined as IC50 values using competition ELISAs. The IC50 value is defined as the concentration of binder which blocks 50% of Dvl PDZ domain binding to a ligand. For example, in solid phase assays, assay plates may be prepared by coating microwell plates (preferably treated to efficiently adsorb protein) with neutravidin, avidin or streptavidin. […] After further washing, the binding reactions are detected, often with an antibody recognizing the non-PDZ fusion partner and a labeled (such as horseradish peroxidase (HRP), alkaline phosphatase (AP), or a fluorescent tag such as fluorescein) secondary antibody recognizing the primary antibody. The plates are then developed with the appropriate substrate (depending on the label) and the signal quantified, such as using a spectrophotometric plate reader. […] Thus the ability of the various molecules to inhibit PDZ domain from binding a known PDZ domain binder can be measured.
Affinity assays—The binding affinities of peptides for Dvl2PDZ were determined as IC50 values using a competition ELISA, as previously described. […]

Dvl2PDZ [2] = molecular target: T1, Dvl2PDZ; test: Fluorescence polarization assay, peptides binding to Dvl2PDZ
Procedure: The binding affinities of synthetic peptides were also measured by Flourescence polarization assay. Serial dilution of purified Dvl2PDZ domain polypeptide (1-10 μM) was incubated with 10 nM probe peptide (FAM-KWYGWL-COOH) (SEQ ID NO: 169) in PBS, 0.1% Triton X100 as 30 μl volume in 96-well black HE96 plates (LJL Biosystem, Inc, Calif.), and incubated for 15 minutes at room temperature. Polarization measurements were performed in Analyst platereader (LJL Biosystems, Inc., Sunnyvale, Calif.). Ks=536 nM was derived from this assay by non-linear regression fitting with KaleidaGraph™. Competition experiments were performed by addition of serial dilution of the free peptides (0-500 μM) to solution with 10 nM probe and 1 μM Dvl2PDZ. The polarization was measured and IC50 values were derived as described above. Ki values were calculated as described previously.

[3] = system: β-catenin protein level in HEK293S cells; test: Western blot of β-catenin protein level in HEK293S cells; format: cell-based; settings: 20 μM peptide, 24 hours, compared to DMSO and PEN
Procedure: HEK293S cells were treated with 20 μM DVLp and PEN for 24 hours. Cell lysate was prepared and subjected to SDS-PAGE. β-catenin was blotted by poly-clonal anti-β-catenin (Genentech, Inc., South San Francisco).
(§1) Cell culture, transfection and peptide treatment: HEK293 and H1703 were propagated according to the instructions from American Type Culture Collection. HEK293 cells were transfected with FuGene6 according to the manufacturer's instructions (Roche Molecular Biochemicals) at cell confluence of 50%. H1703 cells were transfected with Lipofectamine according to manufacturer's instruction at cell confluence of 80%. Cells were treated with medium containing peptide (5 μM-40 μM) 24 hours after transfection, and were routinely harvested 24 hours after the peptide treatment for additional assays.
Western Blot: Harvested cells were lysed with SIC lysis buffer, the supernatant was subjected to SDS-PAGE, which was transferred, blocked and blotted with proper primary antibody by a standard western blot protocol. Fluorescence labeled secondary antibodies (Alexa goat anti-mouse or anti-rabbit) were added and the results were analyzed by Li-core™.

[4] = system: Wnt3a-stimulated β-catenin signaling in HEK293S cells; test: TOPGLOW luciferase reporter assay in HEK293S cells; format: cell-based; settings: for Effect on Wnt3a-stimulated transcriptional activity (TopGlow): peptide up to 20 μM in medium
Procedure: HEK293S cells were transfected with the reporter plasmid pTOPGLOW combined with pRL reporter. Cell extract was prepared and the luciferase activity was measured. The relative luciferase unit (RLU) is TopGlow luciferase activity divided by Renila luciferase activity. The fold of activation is the RLU ratio between the Wnt3a-stimulated and non-stimulated cells. Cells were treated with either 10 μM (light bar) or 20 μM (dark bar) peptide ligands.
as §1
TOPGLOW assay: Cells were plated in 12-well plates. The TOPGLOW reporter plasmid was transfected transiently into cells as described above. TCF-mediated gene transcription was determined by pTOPGLOW luciferase activity, which was normalized to relative luciferase activities of pRL reporter (cotransfected internal control). All experiments were performed duplicated.

IC50 (Dvl2PDZ [1]): 242000 nM
Substance: Ac-KGFGML-OH [Peptide D5, K G F G M L]

Ki (Dvl2PDZ [2]; competition with 10 nM FAM-KWYGWL-COOH probe, 1 μM Dvl2PDZ, read-out: Ki measured by Flourescence polarization assay): 725 nM
Substance: Ac-KWYGWL-OH [Peptide D1, K W Y G W L]

Substance: Ac-RQTKIVWFQNRRMKKGEIVLWSDIPG [DVLp_N3]
β-catenin level in whole cell lysate upon Wnt3a stimulation [3]: significantly lower β-catenin levels
β-catenin level in whole cell lysate upon Wnt3a stimulation ([3]; listed as Dvlp_N3): reduced the Wnt-stimulated increase in β-catenin protein level
Effect on Wnt3a-stimulated transcriptional activity (TopGlow) ([4]; HEK293S cells): inhibited Wnt3a-stimulated transcriptional activity significantly; also recorded: blocked the Wnt-stimulated β-catenin signaling
Effect on Wnt3a-stimulated transcriptional activity (TopGlow) ([4]; HEK293S cells, listed as Dvlp_N3): significantly blocked the Wnt-stimulated increase in β-catenin signaling
Dose dependence of inhibition of Wnt-stimulated β-catenin signaling ([4]; HEK293S cells, two independent experiments): dose-dependent
Inhibition of Wnt3a-stimulated transcriptional activity ([4]; HEK293 cells, peptide 5-20 μM): up to 80%

Affinity lower than that of D1 (Dvl2PDZ [2]; ratio of Ki values): 6 fold
Substance: Ac-GEIVLWSDIPG-NH2 [Peptide N3, G E I V L W S D I P G]

IC50 (Dvl2PDZ [1]): 930 nM
Substance: Ac-KWYGWF [Peptide D2, K W Y G W F]

Substance: Ac-RQTKIWFQNRRMKWKK [PEN, reference compound]
Effect on Wnt3a-stimulated transcriptional activity (TopGlow) ([4]; HEK293S cells): did not show an inhibition effect
